Legend:
Assay type in all cases: cell-based
[1] = system: E. coli (strain EC103) cells; experiment: E. coli cell length (filamentation) measurement
Description: The lengths of ampicillin-susceptible E. coli (strain EC103) cells were measured after treatment for 30 minutes with no antibiotics, ampicillin, or ampicillin plus amdinocillin. Digital photomicrographs of representative cells treated with no antibiotics (16A), ampicillin (16B), and ampicillin plus amdinocillin (16C) are shown.

[2] = system: antibiotic susceptible and resistant E. coli strains; experiment: Mature rRNA and pre-rRNA response to beta-lactam antibiotics with or without amdinocillin; settings: for differentiation of antibiotic-susceptible from antibiotic-resistant bacteria on addition of amdinocillin to the assay: with amdinocillin
Description: As a result of blocking filamentation, levels of mature rRNA and pre-rRNA decrease within 30-45 min when amdinocillin is combined with beta lactam antibiotics. […] For example, at a concentration of 32 μg/ml, cefazolin causes a drop of pre-rRNA within 30 min whether or not amdinocillin is present.
Ampicillin-susceptible E. coli (strain EC135) was treated with ampicillin (16 μg/ml) alone, amdinocillin (1 μg/ml) alone, ampicillin plus amdinocillin, or neither. […] Effects on pre-rRNA were more pronounced than those on mature rRNA.
Ceftriaxone-susceptible E. coli (strain EC103) was treated with ceftriaxone ([…]) alone, amdinocillin ([…]) alone, ceftriaxone plus amdinocillin, or neither. Ceftriaxone-mediated effects on mature rRNA and pre-rRNA occurred 60 min faster with amdinocillin than without amdinocillin.
Cefazolin-susceptible E. coli (strain EC103) was treated with amdinocillin (1 μg/ml) plus cefazolin at concentrations ranging from 0-32 μg/ml.
Graphs illustrating the effects of beta-lactam antibiotics plus amdinocillin on antibiotic susceptible and resistant bacteria can be found in FIGS. 14A-14D. Antibiotic susceptible and resistant bacteria were treated with amdinocillin (1 μg/ml) plus various beta lactam antibiotics including 16 μg/ml cefazolin, 4 μg/ml ceftriaxone, 32 μg/ml piperacillin plus 4 μg/ml tazobactam, and 2 μg/ml imipenem. Differential effects on pre-rRNA of susceptible from resistant bacteria were evident within 30-90 min.

[3] = system: lawn of E. coli (strains EC135, EC96, EC103, NDM-1); experiment: Kirby-Bauer disc diffusion antibiotic-susceptibility test
Excerpt: FIGS. 15A-15F present digital photomicrographs showing results of Kirby-Bauer disc diffusion antibiotic-susceptibility tests. 6 mm diameter antibiotic discs were placed on agar plates seeded with a lawn of E. coli that were Ampicillin susceptible (strain EC135), Ampicillin resistant (strain EC96), Cefazolin susceptible (strain EC103), Cefazolin resistant (strain EC96), Imipenem susceptible (strain EC103) or Imipenem resistant (strain NDM-1). In each panel the antibiotic disc is on the left and the amdinocillin disc is on the right. Images were obtained after 20 hours of incubation at 37° C.

[4] = system: susceptible strain of E. coli; experiment: Response of pre-rRNA to cefazolin in log phase culture; settings: log phase of growth
[5] = system: E. coli clinical urine isolate EC103; experiment: Electrochemical sensor assay of mature rRNA and pre-rRNA after adding an antibiotic to a growing culture; settings: for effect on mature rRNA level: 25 μg/ml Chloramphenicol or 16 μg/ml Gentamicin added at 150 or 210 minutes; for effect on pre-rRNA level: 25 μg/ml Rifampicin, 25 μg/ml Chloramphenicol, 4 μg/ml Ciprofloxacin or 16 μg/ml Gentamicin added at 150 or 210 minutes
Description: Overnight cultures of EC103 were prepared by adding 5 μl of EC103 glycerol stock to 5 ml of MH broth with ampicillin and incubated at 37° C. overnight with shaking. […] Every 30 min, including at 0 min and the overnight culture itself, a 1 ml sample was taken for OD600 measurement and 10-fold serial dilutions (100 μl into 900 μl) were performed in room temperature MH broth. Cell density was determined by plating serial dilutions in triplicate. At each time point, culture samples were transferred to an ice water bath or centrifuged immediately at 4° C. for 3 min at 14,000 rpm.
Electrochemical detection.
Each sensor of the array consisted of a 2.5 mm diameter central working electrode, surrounded by an Au counter electrode and an Au pseudo-reference electrode. […] Washing steps were carried out after each application of reagents by applying a stream of deionized H2O to the sensor surface for approximately 2-3 sec followed by 5 sec of drying under a stream of nitrogen. Prior to addition of the first reagent, the bare gold chips were dried as described above. To functionalize the working sensor surface, a fresh mixture of 0.05 μM thiolated capture probe and 300 μM 1,6-hexanedithiol (96%, Sigma, St. Louis, Mo.) was prepared in 10 mM Tris-HCl, 1 mM EDTA and 0.3 M NaCl (pH 8.0) and allowed to stand at room temperature for 10 min. Aliquots of 6 μl of this mixture were cast over each Au working electrode in the 16-sensor array and incubated overnight at 4° C. in a humidified chamber.

For CC1(C)S[C@@H]2[C@H](/N=C/N3CCCCCC3)C(=O)N2[C@H]1C(=O)O [amdinocillin], the “effect on filamentation caused by beta-lactam antibiotics” value [1] was “prevents filamentation”, the “effect on ampicillin-induced increase in cell length” value ([1]; ampicillin plus amdinocillin, 30 minutes, strain EC103) was “partially blocked” and the “effect of amdinocillin alone on rRNA or pre-rRNA levels” value ([2]; amdinocillin alone) was “no effect”. For the same compound, the “effect of amdinocillin on recognition of ampicillin susceptibility” value ([2]; ampicillin 16 μg/ml, amdinocillin 1 μg/ml, strain EC135) was “enabled early recognition of ampicillin susceptibility”, the “effect of amdinocillin on recognition of cefazolin susceptibility” value ([2]; cefazolin 4 μg/ml, amdinocillin 1 μg/ml, strain EC103) was “enabled early recognition of cefazolin-susceptibility” and the “effect of amdinocillin on pre-RNA levels” value ([2]; cefazolin 32 μg/ml, amdinocillin 1 μg/ml, strain EC103) was “no effect”. The “synergy between amdinocillin and the antibiotics tested” value ([3]; ampicillin, cefazolin, imipenem discs, 20 hours at 37° C.) was “Synergy was not observed” and the “effect of amdinocillin on susceptibility of bacteria to beta-lactam antibiotics” value ([3]; disc diffusion) was “did not increase the susceptibility”.

In the case of CC1(C)S[C@@H]2[C@H](NC(=O)[C@H](N)c3ccccc3)C(=O)N2[C@H]1C(=O)O [ampicillin], the “average increase in length of E. coli cells” value ([1]; treatment for 30 minutes, strain EC103) is reported as 4 fold, the “dependence of the amdinocillin effect on the antibiotic concentration” value [2] is reported as “independent of the antibiotic concentration” and the “differentiation of antibiotic-susceptible from antibiotic-resistant bacteria on addition of amdinocillin to the assay” value (“differentiation” for short) [2] is reported as “enables rapid differentiation”.

With Cc1nnc(SCC2=C(C(=O)O)N3C(=O)[C@@H](NC(=O)Cn4cnnn4)[C@H]3SC2)s1 [cefazolin] the “dependence of the amdinocillin effect on the antibiotic concentration” value [2] was “dependent on the antibiotic concentration”, the “concentration dependence of fall in pre-rRNA levels” value ([2]; cefazolin 0-32 μg/ml plus amdinocillin 1 μg/ml, strain EC103) was “fell more quickly at higher cefazolin concentrations” and the “effect on pre-rRNA” value ([2]; cefazolin 4 μg/ml) was “does not cause a drop of pre-rRNA unless amdinocillin is present”. The “time within which pre-rRNA drops” value ([2]; cefazolin 32 μg/ml, whether or not amdinocillin is present) was at most 30 min, the “differentiation” value [2] was “enables rapid differentiation” and the “drop in amount of pre-rRNA compared to culture without antibiotic” value [4] was “one-log drop”. The “time within which the pre-rRNA drop occurred” value [4] was at most 30 min.

CO/N=C(\C(=O)N[C@@H]1C(=O)N2C(C(=O)O)=C(COC(C)=O)CS[C@H]12)c1csc(N)n1 [cefotaxime] was tested, and the “differentiation” value [2] was “enables rapid differentiation”.

For CO/N=C(\C(=O)N[C@@H]1C(=O)N2C(C(=O)O)=C(CSc3nc(=O)c(=O)[nH]n3C)CS[C@H]12)c1csc(N)n1 [ceftriaxone], the “how much faster effects on mature rRNA and pre-rRNA occurred with amdinocillin than without” value ([2]; ceftriaxone (8 pg/ml), amdinocillin 1 μg/ml, strain EC103) was 60 min.

For O=C(N[C@H](CO)[C@H](O)c1ccc([N+](=O)[O-])cc1)C(Cl)Cl [chloramphenicol], the “effect on mature rRNA level” value [5] was “decrease” and the “effect on pre-rRNA level” value [5] was “selective increase”.

In the case of CCN1CCN(C(=O)N[C@@H](C(=O)N[C@@H]2C(=O)N3[C@@H]2SC(C)(C)[C@@H]3C(=O)O)c2ccccc2)C(=O)C1=O [piperacillin], the “differentiation” value [2] is reported as “enables rapid differentiation”.

gentamicin was tested, and the “effect on mature rRNA level” value [5] was “decrease” and the “effect on pre-rRNA level” value [5] was “without affecting”.
